The values below come from publication PMC3915196, “Asymmetric Synthesis of Spirocyclic 2-Benzopyrans for Positron Emission Tomography of σ1 Receptors in the Brain” (Pharmaceuticals, 2014).

Where two headings read alike, the source gives them in different places. Marks after values point to notes of the source that are not given here. Bounds are passed on as bounds.

Data set [1] concerns the target T1, σ1 receptor (Cavia porcellus, UniProt Q60492).
T1 construct: five guinea pig brains were homogenized with the Potter; tissue Harlan-Winkelmann, Borchen, Germany; host or cells: guinea pig brain (cortex) membrane homogenate
The data set is described as follows: σ1 receptor binding assay with [3H]-(+)-pentazocine. On the set-up: species or system guinea pig.

The conditions of data set [2]: phosphate buffer, Dulbecco buffer and native mouse plasma over 30 min at 37 °C.
Protocol: For pharmacological characterization of the radiotracer [^18F]-(R)-20, chemical stability was investigated in vitro in different buffer systems over 2 h at 40 °C: 50 mM phosphate buffer (pH 7.2), phosphate-saline-solution (Dulbecco; pH 7.2) and 0.01 M TRIS-HCl (pH 7.4).
For data set [3] the following is noted: female, CD1, mouse, in vivo.
In data set [4] the target is T2, σ1 receptors in the brain (Mus musculus, UniProt O55242).
T2 construct: tissue Medizinisch-Experimentelles Zentrum, Universität Leipzig; host or cells: brain of female CD1 mice (in vivo / ex vivo autoradiography)
T2 sequence (O55242 whole entry): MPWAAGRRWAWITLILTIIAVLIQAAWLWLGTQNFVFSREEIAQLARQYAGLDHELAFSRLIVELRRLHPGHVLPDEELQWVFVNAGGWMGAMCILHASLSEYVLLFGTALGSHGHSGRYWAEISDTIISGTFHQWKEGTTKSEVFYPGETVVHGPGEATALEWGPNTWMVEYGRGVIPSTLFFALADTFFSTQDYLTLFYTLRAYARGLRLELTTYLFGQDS
The data set is described as follows: Brain uptake and ex vivo autoradiography under control and haloperidol blocking conditions. Format: in vivo. On the procedure:
The experimental protocols were approved by the local ethics committee and conducted according to the national and EU regulations for animal research. Female CD1 mice (10–12 weeks old, 33.8 ± 6.2 g) were obtained from the Medizinisch-Experimentelles Zentrum, Universität Leipzig and housed under a 12 h/12 h light/dark cycle with free access to food and water for at least 24 h before experiments. Animals were sacrificed by CO2 asphyxiation after anaesthesia with O2/CO2 mixture.
The tracer distribution in the brain under control and blocking conditions was determined by ex vivo autoradiography studies. […] Animals were sacrificed at 30 min p.i. Blood was collected by heart puncture, the brain quickly removed and transferred on ice, and all samples were weighed. Radioactivity in brain and plasma samples was counted using an automated γ-counter and expressed as percentage of injected dose per gram (%ID/g). For autoradiography, the brain hemispheres were frozen immediately after isolation in 2-methylbutane (Carl Roth, Karlsruhe, Germany) at −30 °C (>2 min). Serial sagittal slices of 12 µm thickness were cut on a cryostat (Microm, Walldorf, Germany) from approx. midline, +500 µm, +1,000 µm and +1,500 µm. Slices were exposed overnight on an imaging plate (SR 2025, Fuji, Tokyo, Japan), scanned afterwards with a high-resolution phosphorimager (HD-CR 35 Bio, raytest). 2D densitometry of the whole brain was performed with AIDA software (raytest).

The target in the next data set is T3, σ2 receptor (Rattus norvegicus, UniProt Q5U3Y7).
T3 construct: two rat livers were cut into small pieces and homogenized with the Potter; tissue Harlan-Winkelmann, Borchen, Germany; host or cells: rat liver membrane homogenate
T3 sequence (Q5U3Y7 1-176): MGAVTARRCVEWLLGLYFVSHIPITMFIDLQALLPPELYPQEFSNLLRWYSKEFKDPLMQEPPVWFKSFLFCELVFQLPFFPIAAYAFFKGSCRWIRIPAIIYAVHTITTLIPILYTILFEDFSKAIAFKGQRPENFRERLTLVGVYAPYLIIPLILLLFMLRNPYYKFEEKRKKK
The data set is described as follows: σ2 receptor binding assay with [3H]DTG, σ1 sites masked with (+)-pentazocine. The conditions noted are these: for inhibition at 1 µM: read-out: Inhibition of radioligand binding (σ2).

The conditions of data set [5]: cited from earlier work.
Data set [6] has as its target T2, σ1 receptors in the brain. On the set-up: method as in PMID 21072511. The conditions noted are these: 30 min after injection, 18F-labeled tracer; cited from earlier work.
The conditions of data set [7]: HPLC calibration; cited from earlier work.
Data set [8] deals with T1, σ1 receptor. The conditions noted are these: earlier 2-benzofuran tracers, quoted for comparison, no reference printed at the values; cited from earlier work.
[9] abbreviates: rat liver membranes, [3H]DTG, read-out: Ki ± SEM σ2.
The mark [10] stands for this setting: at a concentration of 1 µM, rat liver membranes, [3H]DTG.
Setting [11] is: established PET tracers, quoted for comparison, no reference given.

T1 sequence (Q60492 whole entry): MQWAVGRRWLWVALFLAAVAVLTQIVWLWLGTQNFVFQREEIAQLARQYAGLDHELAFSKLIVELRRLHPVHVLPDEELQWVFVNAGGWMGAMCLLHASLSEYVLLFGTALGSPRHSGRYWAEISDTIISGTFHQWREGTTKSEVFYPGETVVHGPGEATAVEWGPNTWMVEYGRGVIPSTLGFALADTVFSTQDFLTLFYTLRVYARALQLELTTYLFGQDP

As a reminder, the melting point is the temperature, or range, at which the solid turns liquid. For `O[C@@H]1COC2(CCN(Cc3ccccc3)CC2)c2ccccc21`, the melting point was 53 °C.
A word on the Ki: it is a dissociation constant, usually derived from enzyme kinetics or from competition with a known ligand. As to `[18F]CCO[C@H]1COC2(CCN(Cc3ccccc3)CC2)c2ccccc21` [[^18F]-(R)-20], on σ1 receptor [1], the Ki amounted to 4.7 nM. The defluorination result in [2] is “No defluorination was observed”. In addition, the “non-metabolized radiotracer of total radioactivity in urine” value in [3] (0.5 h) is on record as 2-20%. Besides, in data set [3] (30 min), the “unchanged parent radiotracer in liver” value is approximately 56%. In data set [4] (2D densitometry of ex vivo autoradiographs), the “mean decrease of radiotracer uptake in slices of the whole brain hemisphere with haloperidol” value is “about 40%”. In data set [4] (mouse brain, 30 min p.i.), the total-to-nonspecific binding ratio was 1.5. The “uptake of radioactivity in the brain” value in data set [4] (mouse, 30 min p.i., blocking conditions, co-application of 1 mg/kg haloperidol) turned out to be 2.24 % ID/g; in data set [4] (mouse, 30 min p.i., control conditions), 3.4 % ID/g. In data set [4] (mouse, 30 min p.i., from %ID/g values), the “reduction of brain uptake by haloperidol co-application” value was found to be 34%.
The compound `O[C@H]1COC2(CCN(Cc3ccccc3)CC2)c2ccccc21` gave a melting point of 55 °C.
In the case of `CO[C@H]1COC2(CCN(Cc3ccccc3)CC2)c2ccccc21` [(R)-15, (R)-1′-Benzyl-4-methoxy-3,4-dihydrospiro[[2]benzopyran-1,4′-piperidine]], the Ki on σ2 receptor (setting [9]) was found to be 1150 nM. Moreover, on σ1 receptor [1], the inhibitory constant (Ki) turned out to be 1.2 ± 0.3 nM, the “Selectivity σ1/σ2” value is given as 958 and the “eudismic ratio (σ1 affinity)” value was 7.
`FCCC1OC2(CCN(Cc3ccccc3)CC2)c2ccccc21` (stereo not drawn) [[^18F]2b]: in data set [5] (mouse, in vivo), the “parent compound in liver samples” value is 69% and the “unchanged parent compound in plasma” value is 89%. Further, the total-to-nonspecific binding ratio entry in data set [6] is “approx. 3”.
As to `Clc1ccccc1` [chlorobenzene], the “logD of reference compounds used for calibration” value (shortened to “logD of reference compounds used”) in [7] is listed as 2.8.
Take `c1ccc2c(c1)-c1cccc3cccc-2c13` [fluoranthene]: the “logD of reference compounds used” value in data set [7] is given as 5.1.
The compound `CCOC(=O)CO[C@H]1COC2(CCN(Cc3ccccc3)CC2)c2ccccc21` [(R)-18, Ethyl (R)-2-[(1′-benzyl-3,4-dihydrospiro[[2]benzopyran-1,4′-piperidin]-4-yl)oxy]acetate] registered a Ki on σ2 receptor of 552 nM. Besides, at σ1 receptor [1], the Ki was 4 ± 0.8 nM, the “Selectivity σ1/σ2” value was 138 and the “eudismic ratio (σ1 affinity)” value is reported as 29.
In general, inhibition refers to the share of the control response that was lost under treatment. For the compound `OCCO[C@H]1COC2(CCN(Cc3ccccc3)CC2)c2ccccc21` [(R)-19, (R)-2-[(1′-Benzyl-3,4-dihydrospiro[[2]benzopyran-1,4′-piperidin]-4-yl)oxy]ethanol], at σ2 receptor (setting [10]), the inhibition at 1 µM was 0%. For the same compound, on σ1 receptor [1], the Ki was determined as 55 ± 1 nM and the “Selectivity σ1/σ2” value is recorded as more than 15.
The corresponding values for `FCCO[C@H]1COC2(CCN(Cc3ccccc3)CC2)c2ccccc21` [(R)-20, (R)-1′-Benzyl-4-(2-fluoroethoxy)-3,4-dihydrospiro[[2]benzopyran-1,4′-piperidine]] are 14%, 4.7 ± 0.7 nM and more than 210.
`[18F]CCCC1OC2(CCN(Cc3ccccc3)CC2)c2ccccc21` (stereo not drawn) [[^18F]2c]: in [5] (setting [11]), the “parent compound in liver samples” value was 65% and the “unchanged parent compound in plasma” value is given as 86%.
Consider `FCCO[C@@H]1COC2(CCN(Cc3ccccc3)CC2)c2ccccc21` [(S)-20, (S)-1′-Benzyl-4-(2-fluoroethoxy)-3,4-dohydrospiro[[2]benzopyran-1,4′-piperidine]], for which, on σ2 receptor (setting [10]), the inhibition at 1 µM came out at 10%. Also, at σ1 receptor [1], the affinity, expressed as Ki, was 5.9 ± 2.9 nM and the “Selectivity σ1/σ2” value is on record as more than 170.
`c1ccc2ccccc2c1` [naphthalene]: the “logD of reference compounds used” value in data set [7] is 3.6.
For `FCCC1OC2(CCN(Cc3ccccc3)CC2)c2ccccc21` (stereo not drawn) [fluspidine], the Ki on σ1 receptor [8] was 0.59 nM.
For `CCO[C@@H]1COC2(CCN(Cc3ccccc3)CC2)c2ccccc21` [(S)-16, (S)-1′-Benzyl-4-ethoxy-3,4-dihydrospiro[[2]benzopyran-1,4′-piperidine]], the inhibition at 1 µM at σ2 receptor is 31%. Moreover, at σ1 receptor [1], the Ki came out at 4.2 ± 0.8 nM and the “Selectivity σ1/σ2” value is more than 235.
`CC(C)(C)OC(=O)N1CCC2(CC1)OC[C@H](O)c1ccccc12` [(R)-11, tert-Butyl (R)-4-hydroxy-3,4-dihydrospiro[[2]benzopyran-1,4′-piperidine]-1′-carboxylate] returned a melting point of 161 °C. On σ2 receptor (setting [9]), the Ki turned out to be 2150 nM. In addition, the Ki on σ1 receptor [1] (guinea pig brain membranes, [3H]-(+)-pentazocine, three independent experiments, read-out: Ki ± SEM σ1) was found to be 5.2 ± 0.3 nM. Further, at σ1 receptor [1] (ratio of σ2 and σ1 Ki values), the “Selectivity σ1/σ2” value worked out at 413.
Turning to `CO[C@@H]1COC2(CCN(Cc3ccccc3)CC2)c2ccccc21` [(S)-15, (S)-1′-Benzyl-4-methoxy-3,4-dihydrospiro[[2]benzopyran-1,4′-piperidine]], the Ki on σ2 receptor (setting [9]) was found to be 676 nM; on σ1 receptor [1] it was 8.8 ± 1.1 nM. Also, the “Selectivity σ1/σ2” value on σ1 receptor [1] is 77.
Take “tert-Butyl (S)-4-hydroxy-3,4-dihydrospiro[[2]benzopyran-1,4′-piperidine]-1′-carboxylate [(S)-11]”: the “Inhibition of radioligand binding (σ2)” value on σ2 receptor (1 µM) is 24% *. Moreover, the “Selectivity σ1/σ2” value on σ1 receptor [1] is more than 55. For the same compound, on σ1 receptor [1] (read-out: Ki ± SEM σ1), the Ki is 18 ± 5 nM.
As to `CCOC(=O)CO[C@@H]1COC2(CCN(Cc3ccccc3)CC2)c2ccccc21` [(S)-18, Ethyl (S)-2-[(1′-benzyl-3,4-dihydro-3,4-dihydrospiro[2-benzopyran-1,4′-piperidin]-4-yl)oxy]acetate], the inhibition at 1 µM at σ2 receptor stood at 12%. Moreover, at σ1 receptor [1], affinity was put at a Ki of 114 nM and the “Selectivity σ1/σ2” value is listed as more than 5.
Regarding `CCO[C@H]1COC2(CCN(Cc3ccccc3)CC2)c2ccccc21` [(R)-16, (R)-1′-Benzyl-4-ethoxy-3,4-dihydrospiro[[2]benzopyran-1,4′-piperidine]], the affinity at σ2 receptor, expressed as Ki, was 954 nM. At σ1 receptor [1], the affinity corresponds to a Ki of 5 ± 1.2 nM and the “Selectivity σ1/σ2” value is 191.
`OCCO[C@@H]1COC2(CCN(Cc3ccccc3)CC2)c2ccccc21` [(S)-19, (S)-2-[(1′-Benzyl-3,4-dihydrospiro[[2]benzopyran-1,4′-piperidin]-4-yl)oxy]ethanol]: the inhibition at 1 µM at σ2 receptor (setting [10]) amounted to 0%. Also, at σ1 receptor [1], the Ki came to 64 ± 0.9 nM and the “Selectivity σ1/σ2” value is more than 15.
As to `FCCCCC1OC2(CCN(Cc3ccccc3)CC2)c2ccccc21` (stereo not drawn) [Compound 2d], the total-to-nonspecific binding ratio result in data set [6] is “approx. 3”.
